Measured values: patent US9233127B2, “Compositions and methods for CXCR4 signaling and umbilical cord blood stem cell engraftment” (University of Virginia Patent Foundation, priority 2012, dated 2016)
“Also recorded” adds a separate entry of the source. Ends that are not written are not given here.

Assays:
[1] = tested on: DNA methyltransferase; assay: miR-184 expression by RT-PCR in adult CD4 T-cells treated with 5-aza deoxycytidine; type: cell-based, human; details: 10 uM for 24 h
Procedure: FIG. 29A-B—A.) Schematic of the genomic region surrounding hsa-miR-184. Dots denote CpG sites and a putative CpG island (defined by observed/expected CpG incidence>[…], GC>50%, length>100 bp) located closely upstream. B) Adult CD4 T-cells were cultured with and without the DNA methyltransferase blocker 5-aza deoxycytidine (5-aza) for 24 h, a portion stimulation for 6 h, then assayed for miR-184 expression by RT-PCR.
However, expression of many miRNA species is known to be mediated by epigenetic events such as DNA methylation. […] Indeed we observed a small predicted (obs/exp>0.6, GC>50%) CpG island upstream of the miR-184 genomic site as well as several additional downstream CpG sites (FIG. 29 A). Inhibition of […] gene silencing is accomplished by treating with 5-aza-deoxycytidine, which is incorporated into replicating DNA and blocks DNA methyltransferase enzymes.

[2] = tested on: CXCR4; assay: Western blot of CXCR4 in lipid raft membrane fractions, cationic peptides (Nalm-6); type: cell-based, human
Procedure: (§1) FIG. 18A-B—Priming effect of cationic peptides is dependent on enhanced incorporation of CXCR4 into lipid rafts. (A) Western blot analysis of the localization of CXCR4 in various fractions of cell membranes. Membranes enriched in lipid rafts (fractions 3-5) and depleted of lipid rafts (fractions 9-11). Human pre-B cell line, Nalm-6, was stimulated with […] β2-defensin (hBD-2) (250 ng/ml) or was not stimulated (control). CXCR4 was detected in these membrane fractions by Western blot along with Lyn, a marker of lipid rafts. Experiments were performed three times with similar results. (B) LL-37-induced enhancement of THP-1 cell migration to SDF-1 gradient was inhibited by 1 h pretreatment with MβCD (1.0 or 2.5 mM). * P<0.05 as compared with migration of control cells in the absence of LL-37 (2.5 μg/ml). Lipid raft formation was analyzed. Shown are representative of three independent experiment carried out in triplicate per group. The data shown represent the combine results from four independent experiments carried out in triplicate per group (n=12).
(§2) Since enhanced responsiveness of HSPCs to SDF-1 gradient in the presence of C3a (priming effect) is mediated by incorporation of CXCR4 into membrane lipid rafts, we tested if similar phenomenon is responsible for LL-37 or β2D-dependent priming. […]

[3] = tested on: murine BMNCs and CFU-GM progenitor cells; assay: Migration of murine BMNCs and CFU-GM progenitors to SDF-1 gradient after cationic peptide priming; type: cell-based; details: for migration of CFU-GM progenitor cells in response to SDF-1 gradient / migration of murine BMNCs in response to SDF-1 gradient: SDF-1 50 ng/ml; for chemotactic activity alone: without SDF-1
Procedure: FIG. 8A-B—A) BM mononuclear cell and B) CFU-GM migration in response to an SDF-1 gradient after priming with LL-37 or hBD-2. Values are fold increases of migrated cells compared to media alone.
FIG. 17A-B—Cationic peptides released from granulocytes enhance responsiveness of HSPCs to SDF-1 gradient. […] Values are the fold increases of migrated cells compared to media alone. M, media alone; SDF-1 (L), 50 ng/ml; SDF-1 (H), 300 ng/ml; C3a, 1 μg/ml. * P<0.05 as compared with SDF-1 (50 ng/ml) alone. The data shown represent the combine results from four independent experiments carried out in triplicate per group (n=12).
We also evaluated the effect of complement fragment 5a (C5a). […] After leaving the BM, granulocytes undergo degranulation in response to plasma C5a and secrete cationic peptides, such as cathelicidin (LL-37) and β-defensin-2 (hBD-2). […] It was hypothesized that this response may be affected by the distribution of membrane lipids by cationic peptides. […] Direct confocal analysis of CXCR4 and lipid raft colocalization in the presence or absence of cationic peptides confirmed these findings.

[4] = tested on: syngeneic BM mononuclear cells; assay: Murine BM transplant with BM mononuclear cells exposed ex vivo to LL-37; type: in vivo; details: BM exposed ex vivo 30 minutes; lethally irradiated recipients
Procedure: Leukophoresis products enriched in activated granulocytes release hBD-2 and LL-37. The question was whether this might explain why mobilized peripheral blood hematopoietic progenitors engrafts substantially faster relative to marrow. We therefore performed studies in a murine BM transplant model where syngeneic BM mononuclear cells were exposed ex vivo to LL-37 for 30 minutes and subsequently transplanted into lethally irradiated recipients. […] On the basis of these findings, this represents a second strategy for reducing the period of neutropenia in recipients of UCB

[5] = tested on: CD34+ cells; assay: Transwell chemotaxis of CD34+ cells to an SDF-1 gradient (priming); type: cell-based, human; details: pre-incubated 1 hr with MβCD (2.5 mM); low dose of SDF-1
Procedure: FIG. 11A-B—Effect of SLP and its components on chemotaxis of CD34^+ cells. Panel A: Chemotaxis of BM CD34^+ cells towards medium alone (control), SDF-1 low (10 ng/mL) alone, SLP (combined SLP from three patients), SDF-1 low+SLP, and SDF-1 high (300 ng/mL). Data are pooled from quadruplicate samples from three independent experiments. *p<0.00001. Panel B: Chemotaxis of UCB CD34^+ cells to medium alone (control), SDF-1 low (10 ng/mL) alone and SDF-1 low (10 ng/mL)+uPAR (1 μg/mL) or +ICAM (1 μg/mL) or +VCAM (1 μg/mL) or +FN (2 μg/mL), or +FG (4 μg/mL) or +C3a (1 μg/mL). Data are pooled from quadruplicate samples from three independent experiments. * p<0.00001.
Chemotaxis of CD34^+ cells to medium alone (control), C3a (1 μg/ml), C3adesArg (1 μg/ml), SDF-1 low (10 ng/mL) alone, and SDF-1 low (10 ng/mL)+C3a low (0.1 μg/ml) or SDF-1 low (10 ng/mL)+C3a (1 μg/ml) or SDF-1 low (10 ng/mL)+C3adesArg (1 μg/ml). Data are pooled from quadruplicate samples from three independent experiments.* p<0.00001.
FIG. 13A-B—Chemotaxis of cells to an SDF-1 gradient is lipid raft-dependent. Panel A: Chemotaxis of CD34^+ cells to medium alone (control), SDF-1 (300 ng/mL) and SDF-1 (300 ng/mL) after preincubation for 1 hr with Amphotericin (10 μg/mL) or Nystatin (50 μg/mL). Cells were collected after chemotaxis from the lower chambers and plated in a clonogenic assay. The number of CFU-GM and BFU-E colonies formed by harvested cells is shown as a percentage of control values. Data are pooled from quadruplicate samples from three independent experiments. *p<0.0001. Panel B: Chemotaxis of CD34^+ cells towards medium alone (control), SDF-1 low (10 ng/mL) alone, or SDF-1 low with cells exposed to C3a (1 μg/mL). Cells pretreated before chemotaxis for 1 hr with MβCD (2.5 mM) are shown as gray bars. Data are pooled from quadruplicate samples from three independent experiments. * p<0.00001.
HSPCs from the mPB engraft faster compared to HSPCs aspirated from BM. To test the hypothesis that mPB-derived HSPCs are primed in their responses to SDF-1 by molecules present in SLP, we pooled together SLP from three patients and exposed BM or UCB CD34^+ cells to the SLP during chemotaxis to a low (10 ng/mL) dose of SDF-1.
To address this issue further, the formation of rafts in the cells was perturbed by MβCD, which depletes cholesterol from the cell membrane. The CD34^+ cells were pre-incubated with MβCD for 1 hr. Chemotaxis to a low dose of SDF-1 in the presence of C3a (in the upper chambers) was evaluated.

[6] = tested on: THP-1 cell; assay: THP-1 cell migration to SDF-1 gradient with LL-37 and MβCD pretreatment; type: cell-based
Procedure: as §1, §2

In the case of `Nc1ncn([C@H]2C[C@H](O)[C@@H](CO)O2)c(=O)n1` [5-aza deoxycytidine, 5-aza-deoxycytidine], the miR-184 expression [1] is reported as “significant increase” and the “miR-184 expression increase when cells were stimulated in vitro” value ([1]; stimulation 6 h) is reported as “abrogated”.
In the case of “LL-37: active fragment of cathelicidin; recombinant cationic peptide released from granulocytes (LLGDFFRKSKEKIGKEFKRIVQRIKDFLRNLVPRTES; Antibacterial peptide LL-37; UniProt P49913 134-170, looked up)”, the “incorporation of CXCR4 into membrane lipid rafts” value [2] is reported as “increase incorporation of CXCR4”, the “priming effect compared with that described for C3a” value [3] is reported as “several times higher” and the “responsiveness of hematopoietic progenitors to plasma SDF-1 (priming effect)” value [3] is reported as “highly enhanced”. The “migration of CFU-GM progenitor cells in response to SDF-1 gradient” value (“migration of CFU-GM progenitor cells” for short) [3] was “enhance/prime migration; also recorded: strongly enhanced”, the “migration of murine BMNCs in response to SDF-1 gradient” value (“migration of murine BMNCs in response” for short) [3] was “enhance/prime migration; also recorded: strongly enhanced” and the chemotactic activity alone [3] was “do not show chemotactic activity”. The “accelerated recovery of platelets and neutrophils compared to unprimed control cells” value [4] was 3 to 5 days.
For “hBD-2: β-defensin-2; recombinant cationic peptide released from granulocytes (GIGDPVTCLKSGAICHPVFCPRRYKQIGTCGLPGTKCCKKP; ends and bridges not checked; cysteine pairing not given here; UniProt O15263 24-64, looked up)”, the “incorporation of CXCR4 into membrane lipid rafts” value [2] was “increase incorporation of CXCR4”, the “priming effect compared with that described for C3a” value [3] was “several times higher” and the “responsiveness of hematopoietic progenitors to plasma SDF-1 (priming effect)” value [3] was “highly enhanced”. For the same molecule, the “migration of CFU-GM progenitor cells” value [3] was “strongly enhanced”, the “migration of murine BMNCs in response” value [3] was “strongly enhanced” and the “migration of CFU-GM progenitor cells” value ([3]; listed as β2D) was “enhance/prime migration”. For the same molecule, the “migration of murine BMNCs in response” value ([3]; listed as β2D) was “enhance/prime migration” and the chemotactic activity alone [3] was “do not show chemotactic activity”.
With “methyl-β-cyclodextrin [MβCD, reference compound]” the “inhibition of the priming effect of C3a” value [5] was about 60%, the “effect on the priming effects of LL-37 and hBD-2” value ([3]; inhibitor of cell membrane raft formation) was “inhibit the priming effects” and the “LL-37-enhanced migration/responsiveness to SDF-1 gradient” value ([6]; 1 h pretreatment with MβCD (1.0 or 2.5 mM), LL-37 2.5 μg/ml) was “inhibited”. The fMLP mediated migration ([6]; control experiments, MβCD pretreatment) was “did not affect”.
